Target: herpes simplex virus type 2 (HSV-2) thymidine kinase (Human herpesvirus 2, UniProt P89446)
Assay: inhibition of herpes simplex virus type 2 (HSV-2) thymidine kinase in vitro (3H-thymidine phosphorylation)
Assay type: biochemical
Settings: thymidine kinase extract; 50 mM Tris-HCl, pH 8; 5 mM MgCl2; 5 mM ATP; 0.3 μM 3H-thymidine; 37° C., 30 minutes; read-out: IC50 (concentration of the test compound which inhibits enzyme activity by 50%)
Protocol: The assay mixture contains 50 mM Tris-HCl, pH 8, 5 mM magnesium chloride, 5 mM ATP, 0.3 μM ^3 H-thymidine (50 Ci/mmol), suitably diluted thymidine kinase extract and various concentrations of the test compounds in a total volume of 100 μl. Assays are incubated at 37° C. for 30 minutes and the reaction is terminated by immersion in a boiling water bath for 2 minutes. 85 μl aliquots from each assay are then dried on cellulose paper discs and the unphosphorylated ^3 H-thymidine is removed by washing in 4 mM ammonium formate. The radioactivity remaining bound to the discs is then measured by scintillation spectrophotometry. The degree of inhibition at each concentration of the test compound is expressed as a percentage of a control reaction. The IC50 value, namely the concentration of the test compound which inhibits enzyme activity by 50%, is then calculated. The results obtained with representative compounds of formula I are compiled in the following Table: […]

Sequence of herpes simplex virus type 2 (HSV-2) thymidine kinase (P89446 whole entry): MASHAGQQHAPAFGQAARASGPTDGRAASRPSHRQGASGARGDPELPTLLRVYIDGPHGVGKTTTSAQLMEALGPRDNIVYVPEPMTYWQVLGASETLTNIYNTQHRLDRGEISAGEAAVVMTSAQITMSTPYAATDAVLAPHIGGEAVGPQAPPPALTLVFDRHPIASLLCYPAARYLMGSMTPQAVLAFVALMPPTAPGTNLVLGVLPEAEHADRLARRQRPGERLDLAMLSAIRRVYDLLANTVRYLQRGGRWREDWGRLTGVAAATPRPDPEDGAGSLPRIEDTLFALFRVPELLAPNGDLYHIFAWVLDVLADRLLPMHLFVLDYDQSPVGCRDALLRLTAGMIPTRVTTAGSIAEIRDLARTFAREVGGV

Row | IC50 [nM] | Structure (SMILES)
1 | 2.4 | CCc1cn([C@H]2C[C@H](O)[C@@H](CCC(=O)Cc3c(Cl)cccc3Cl)O2)c(=O)[nH]c1=O [Example 3, 5'-[3-(2,6-dichlorophenyl)-2-oxopropyl]-2',5'-dideoxy-5-ethyluridine]
2 | 72 | CCc1cn([C@H]2C[C@H](O)[C@@H](CSCc3c(Cl)cccc3Cl)O2)c(=O)[nH]c1=O [Example 14c, 5'-(2,6-dichlorobenzylthio)-2',5'-dideoxy-5-ethyluridine]

Continued, molecule first:

Row | Structure (SMILES) | IC50 [nM]
3 | CCc1cn([C@H]2C[C@H](O)[C@@H](CCC(O)Cc3c(Cl)cccc3Cl)O2)c(=O)[nH]c1=O (mixture of isomers) [Example 5, 5'-[3-(2,6-dichlorophenyl)-2(RS)-hydroxypropyl]-2',5'-dideoxy-5-ethyluridine] | 16
4 | CCc1cn([C@H]2C[C@H](O)[C@@H](CCCCc3ccccc3)O2)c(=O)[nH]c1=O [Example 7, 2',5'-dideoxy-5-ethyl-5'-(3-phenylpropyl)uridine] | 170
5 | CCc1cn([C@H]2C[C@H](O)[C@@H](CS(=O)(=O)Cc3ccccc3)O2)c(=O)[nH]c1=O [Example 9, 5'-benzylsulphonyl-2',5'-dideoxy-5-ethyluridine] | 600
